Data taken from patent publication US20070202079A1, “Therapeutic compositions and methods useful in modulating protein tyrosine phosphatases” (priority 2006, published 2007).

Experiments:
NB4 cells = experiment: NB4 growth, cell cycle and Annexin V; type: cell-based, human
Protocol: The NB4 cell line (Lanotte et al., Blood 77, 1080 (1991)) was a gift from Dr. Dan Lindner of the Cleveland Clinic Foundation. […] and U937 cell lines were purchased from American Type Culture Collection (Rockville, Md.). These human […] cell lines were maintained in RPMI 1640 medium supplemented with 10% fetal calf serum (FCS). For cell proliferation assays, cells were cultured at 37° C. in 10% FCS medium containing various amounts of sodium stibogluconate for 6 days. The cell numbers in the cultures were determined by an MTT assay as described previously in Mosmann, J. Immunol. Methods 65, 55 (1983).
The cell cycle was analyzed by flow cytometry after 3 days of culture of NB4 cells in the absence or presence of sodium stibogluconate (250 μg/ml) or ATRA (1 μM). Briefly, the cells were fixed in cold ethanol and incubated for 30 minutes at 4° C. in the dark with a solution of […] propidium iodide, 1 mg/ml RNase and 0.1% NP-40. Analysis was performed immediately after staining using the CELLFIT program (Becton Dickinson, Mountain View, Calif.).
Annexin V staining of exposed membrane phospholipid phosphatidylserine (PS) was done using the Annexin V assay kit (Pharmingen, San Diego, Calif.). Briefly, NB4 cells were cultured in the 10% FCS RPMI 1640 medium in the absence or presence of sodium stibogluconate (250 μg/ml) or ATRA (1 μM) for 3 days. Cells were then washed in PBS twice and stained in binding buffer (10 mM Hepes, pH 7.4; 140 mM NaCl; 2.5 mM CaCl2) containing Annexin V-FITC and propidium iodide for 15 min. The reaction was stopped by adding 10 volumes of binding buffer and analyzed by FACS (Becton Dickinson Facsvantage).

DU145 cells = experiment: DU145 cell growth, MTT; type: cell-based, human
Protocol: For cell proliferation assays, cells were grown in 10% FCS culture medium containing various amounts of IFNs and/or sodium stibogluconate in 96 well plates and cultured at 37° C. for 3 or 6 days as indicated. The numbers of viable cells in proliferation assays were determined by MTT assays as described in Phatak et al., J. Immunol. 167, 3391 (2001).
NIH3T3 (Yi, et al., Blood 85, 87 (1995)), WM9 (Forsberg, et al., Proc. Nat. Acad Sci. USA 90, 393 (1993)), DU145 (Mickey, et al., Cancer Res. 37, 4049 (1977)), LoVo (Drewinko, et al., Cancer Res. 36, 467 (1976)), HEY (Buick, et al., Cancer Res. 45, 3668 (1985)), U251 (Yoshida, et al., Cancer 50, 410 (1982)), A549 (Giard, et al., J. Natl. Cancer Inst. 51, 1417 (1973)) and SK-N-SH (Helson, et al., Cancer Res. 35, 2594 (1975)) cell lines have been described and were cultured in RPMI 1640 supplemented with 10% fetal calf serum (FCS). For measurement of sodium stibogluconate effects on cell growth in vitro, cells were cultured in the absence (−) or presence (+) of various amounts of sodium stibogluconate for 6 days with viable cells quantified by MTT assays (Mosmann, J. Immunol. Methods 65, 55 (1983)). Percentages of growth inhibition by sodium stibogluconate were calculated (.+−.x%).

Renca cells = experiment: Renca cell growth, MTT; type: cell-based, murine; conditions: SSG 6.25-200 μg/ml, 6 days; listed as SSG
Source text: Renca (Murphy, G. P., and W. J. Hrushesky. 1973. A murine renal cell carcinoma. J Natl Cancer Inst 50:1013), Jurkat (Gillis, S., and J. Watson. 1980. Biochemical and biological characterization of lymphocyte regulatory molecules. V. Identification of an interleukin 2-producing human leukemia T cell line. J Exp Med 152:1709) and WM9 (Forsberg, K., I. Valyi-Nagy, C. H. Heldin, M. Herlyn, and B. Westermark. 1993. Platelet-derived growth factor (PDGF) in oncogenesis: development of a vascular connective tissue stroma in xenotransplanted human melanoma producing PDGF-BB. Proc Natl Acad Sci USA 90:393) cell lines were obtained from a colleague at the Cleveland Clinic Foundation (CCF) and cultured in RPMI 1640 medium supplemented with 10% fetal calf serum (FCS). Recombinant IL-2 (Proleukin, 22 million IU/1.3 mg, Chiron, Emeryville, Calif.) was purchased from the CCF pharmacy. […] For cell growth inhibition assays, cells were cultured in absence or presence of various amounts of SSG for 6 days with viable cells quantified by MTT assays as described elsewhere (Pathak, M. K., and T. Yi. 2001. Sodium stibogluconate is a potent inhibitor of protein tyrosine phosphatases and augments cytokine responses in hemopoietic cell lines. J Immunol 167:3391).

Renca tumors = Renca tumors in Balb/c mice; type: in vivo; conditions: Balb/c mice, two weeks
Protocol: Balb/c and athymic nude Balb/c mice (10 weeks old, female, Taconic Farms, Germantown, N.Y.) were inoculated (s.c.) at the flanks with Renca cells (10^6 cells/site). Four days post-inoculation, the mice were subject to no treatment (Control) or treatment with IL-2 ([…]/daily for 5 days, i.p.), SSG (12 mg/daily, i.m. at hip regions) or the combination of the two agents for two weeks. […] The dose of SSG was similar to the effective daily dose of the drug for the treatment of murine leishmaniasis (Murray, H. W., J. D. Berman, and S. D. Wright. 1988. Immunochemotherapy for intracellular Leishmania donovani infection: gamma interferon plus pentavalent antimony. J Infect Dis 157:973). Tumor volume was measured during the study period and calculated using the formula for a prolate spheroid (V=4/3×a2b) (Lindner, D. J., E. C. Borden, and D. V. Kalvakolanu. 1997. Synergistic antitumor effects of a combination of interferons and retinoic acid on human tumor cells in vitro and in vivo. Clin Cancer Res 3:931). Student's t test was used for assessing the significance of tumor volume differences among differential treatment groups. Mouse viability (daily) and body weights (weekly) were also recorded during the study period. At the end of the study, Renca tumors and major internal organs (heart, kidney, liver, lung and spleen) were harvested for histology and immunohistochemistry analysis.

[1] = system: IFNγ+ cells in human peripheral blood; experiment: ELISPOT assays of peripheral blood treated in vitro; type: cell-based; conditions: comparable conditions

O.O.O.O.O.O.O.O.O.O=C([O-])[C@@H]1[O][Sb]2([O-])([O][Sb]34([OH])[O][C@H]([C@H](O)CO)[C@H]([O]3)[C@H](C(=O)[O-])[O]4)[O][C@H]([C@H](O)CO)[C@@H]1[O]2.[Na+].[Na+].[Na+] [sodium stibogluconate]
Annexin V staining of NB4 cells (NB4 cells; 250 μg/ml, 6 days): stained positive by Annexin V | proliferation of NB4 cells (NB4 cells; 12.5-400 μg/ml): markedly inhibited | cell cycle of NB4 cells (NB4 cells; sodium stibogluconate 250 μg/ml or ATRA 1 μM, 3 days): significant increase of cells at S phase | DU145 cells, single agent (DU145 cells; 50 μg/ml and 100 μg/ml, day 6 culture): killed all cells | cell killing of DU145 (DU145 cells; 100 μg/ml, day 6): near-complete cell killing | Renca cell growth in culture (Renca cells): failed to inhibit Renca cell proliferation | tolerance of treatment (Renca tumors): tolerated well | cells expressing TH2 cytokine IL-5 [1]: not induced
